Source: BindingDB's records for patent US12319672 (Idorsia Pharmaceuticals, 2025)

Tests used:
[1] = molecular target: Galectin-3 (Homo sapiens, UniProt P17931); experiment: Inhibitory Activity Assay
Experimental: (§1) The inhibitory activity of compounds is determined in competitive binding assays. This spectrophotometric assay measures the binding of biotinylated human Gal-3 (hGal-3) or human Gal-1 (hGal-1), respectively, to a microplate-adsorbed glycoprotein, asialofetuin (ASF) (Proc Natl Acad Sci USA. 2013 Mar. 26; 110(13):5052-7.). Alternatively, and preferably, a human Gal-1 version in which all six cysteines are substituted by serines may be used.Briefly, compounds are serially diluted in DMSO (working dilutions). ASF-coated 384 well plates are supplemented with 22.8 μL/well of biotinylated hGal-3 or hGal-1 in assay buffer (i.e. 300-1000 ng/mL biotinylated hGal-3 or hGal-1) to which 1.2 μL of compound working dilutions are added and mixed.Plates are incubated for 3 hours at 4° C., then washed with cold assay buffer (3×50 uL), incubated for 1 hour with 25 μL/well of a streptavidin-peroxidase solution (diluted in assay buffer to 80 ng/mL) at 4° C., followed by further washing steps with assay buffer (3×50 uL). Finally, 25 μL/well of ABTS substrate is added.

[2] = molecular target: Galectin-1 (Homo sapiens, UniProt P09382); experiment: Inhibitory Activity Assay
Chain of Galectin-1 (P09382 whole entry): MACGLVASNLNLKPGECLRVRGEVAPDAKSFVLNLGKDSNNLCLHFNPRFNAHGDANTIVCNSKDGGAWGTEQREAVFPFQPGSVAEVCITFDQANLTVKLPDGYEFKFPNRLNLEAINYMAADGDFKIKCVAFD
Experimental: as §1

Chain of Galectin-3 (P17931 whole entry): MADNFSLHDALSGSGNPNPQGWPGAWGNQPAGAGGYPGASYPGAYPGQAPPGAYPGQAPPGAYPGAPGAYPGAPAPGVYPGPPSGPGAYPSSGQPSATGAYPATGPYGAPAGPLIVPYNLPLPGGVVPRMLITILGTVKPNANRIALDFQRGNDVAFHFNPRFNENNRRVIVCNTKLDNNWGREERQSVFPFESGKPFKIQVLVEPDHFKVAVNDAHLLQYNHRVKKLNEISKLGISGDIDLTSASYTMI

IC50 [1] [nM] | IC50 [2] [nM] | Compound
22 | 1050 | CO[C@@H]1[C@@H](n2cc(-c3ccc(Br)c(F)c3F)nn2)[C@@H](O)[C@@H](CO)O[C@@H]1Cc1cc(C2CCN(S(C)(=O)=O)CC2)on1 [US12319672, Example 1.155]
43 | 710 | CO[C@@H]1[C@@H](n2cc(-c3ccc(Cl)c(F)c3F)nn2)[C@@H](O)[C@@H](CO)O[C@@H]1Cc1cc(C2CCN(C(C)=O)CC2)on1 [US12319672, Example 1.163]
140 | 1470 | CO[C@@H]1[C@@H](n2cc(-c3ccc(F)c(F)c3F)nn2)[C@@H](O)[C@@H](CO)O[C@@H]1Cc1cc(C2(C#N)CCCC2)on1 [US12319672, Example 1.277]
120 | 3210 | CO[C@@H]1[C@@H](n2cc(-c3ccc(Cl)c(F)c3F)nn2)[C@@H](O)[C@@H](CO)O[C@@H]1Cc1cc(C2(C#N)CCCC2)on1 [US12319672, Example 1.279]
81 | 1450 | CO[C@@H]1[C@@H](n2cc(-c3ccc(C)c(F)c3F)nn2)[C@@H](O)[C@@H](CO)O[C@@H]1Cc1cc(C2(O)CCC2)no1 [US12319672, Example 2.57]

Further lines, the compound ahead of its results:

Compound | IC50 [1] [nM] | IC50 [2] [nM]
CO[C@@H]1[C@@H](n2cc(-c3cc(F)c(F)c(F)c3)nn2)[C@@H](O)[C@@H](CO)O[C@@H]1CC1=NOC(C(C)(C)O)C1 (some centres undefined) [US12319672, Example 1.68] | 470 | 5090
CO[C@@H]1[C@@H](n2cc(-c3cc(F)c(Cl)c(F)c3)nn2)[C@@H](O)[C@@H](CO)O[C@@H]1Cc1cc(C2CCN(C(C)=O)CC2)on1 [US12319672, Example 1.167] | 40 | 910
CO[C@@H]1[C@@H](n2cc(-c3ccc(F)c(F)c3F)nn2)[C@@H](O)[C@@H](CO)O[C@@H]1Cc1cc(-c2ccc(F)c(F)c2F)on1 [US12319672, Example 1.230] | 540 | > 100000
Cc1nc2ccc(-c3cn([C@H]4[C@@H](O)[C@@H](CO)O[C@H](CC5CC(C6CCN(C(=O)OC(C)(C)C)CC6)=NO5)[C@@H]4O)nn3)cc2s1 (some centres undefined) [US12319672, Example 1.299] | 4040 | 3840
CC(C)(C)c1cc(C[C@H]2O[C@H](CO)[C@H](O)[C@H](n3cc(-c4ccc(Cl)c(F)c4F)nn3)[C@H]2O)on1 [US12319672, Example 1.302] | 36 | 1000
CO[C@@H]1[C@@H](n2cc(-c3ccc(C)c(F)c3F)nn2)[C@H]2OC(C)(C)OC[C@H]2O[C@@H]1Cc1cc(C(C)c2ccccc2)no1 (some centres undefined) [US12319672, Example 1.341] | 200 | 15700
CC(=O)N1CCC(c2cc(C[C@H]3O[C@H](CO)[C@H](O)[C@H](n4cc(-c5cc(F)c(F)c(F)c5)nn4)[C@H]3O)no2)CC1 [US12319672, Example 3.17] | 46 | 960
